From US9854800B2, “Herbicidal compositions comprising 4-amino-3-chloro-6-(4-chloro-2-fluoro-3-methoxyphenyl)-5-fluoropyridine-2-carboxylic acid or a derivative thereof and chlormequat chloride” (priority 2015, dated 2018)

Experiments:
Format in all cases: in vivo
Conditions in all cases: 21 DAA
[1] = tested on: CIRAR = Cirsium arvense (L.) Scop. (Canada thistle); experiment: Post-emergent foliar herbicidal activity, greenhouse: CIRAR
Description: (§1) Seeds of the desired test plant species were planted in Sun Gro MetroMix® 306 planting mixture, which typically has a pH of 6.0 to 6.8 and an organic matter content of about 30 percent, in plastic pots with a surface area of 103.2 square centimeters (cm^2). When required to ensure good germination and healthy plants, a fungicide treatment and/or other chemical or physical treatment was applied. The plants were grown for 7-36 days in a greenhouse with an approximate 14 hour (h) photoperiod which was maintained at about 18° C. during the day and 17° C. during the night. Nutrients and water were added on a regular basis and supplemental lighting was provided with overhead metal halide 1000-Watt lamps as necessary. The plants were employed for testing when they reached the second or third true leaf stage.
(§2) Treatments consisted of the compound of formula (I) and a second herbicide alone (chlormequat). Weighed amounts of the compound of formula (I) were placed in 25 milliliter (mL) glass vials and dissolved in 4 mL of a 97:3 v/v mixture of acetone and DMSO to obtain concentrated stock solutions. Compound requirements are based upon a 12 mL application volume at a rate of 187 liters per hectare (L/ha). Spray solutions of the second herbicide and compound of formula (I) mixtures were prepared by adding the stock solutions to the appropriate amount of dilution solution to form 12 mL spray solution with active ingredients in two-way combinations. Formulated compounds were applied to the plant material with an overhead Mandel track sprayer equipped with 8002E nozzles calibrated to deliver 187 L/ha over an application area of 0.503 square meters (m^2) at a spray height of […] above average plant canopy. Control plants were sprayed in the same manner with the solvent blank.
(§3) The treated plants and control plants were placed in a greenhouse as described above and watered by sub-irrigation to prevent wash-off of the test compounds. After 20-22 days, the condition of the test plants as compared with that of the control plants was determined visually and scored on a scale of 0 to 100 percent where 0 corresponds to no injury and 100 corresponds to complete kill.
(§4) Colby's equation was used to determine the herbicidal effects expected from the mixtures (Colby, S. R. 1967. Calculation of the synergistic and antagonistic response of herbicide combinations. Weeds 15:20-22.) .
(§5) The following equation was used to calculate the expected activity of mixtures containing two active ingredients, A and B: Expected=A+B−(A×B/100)
(§6) A=observed efficacy of active ingredient A at the same concentration as used in the mixture.
(§7) B=observed efficacy of active ingredient B at the same concentration as used in the mixture.

[2] = tested on: CHEAL = Chenpodium album L. (common lambsquarters); experiment: Post-emergent foliar herbicidal activity, greenhouse: CHEAL
Description: as §1, §2, §3, §4, §5, §6, §7

[3] = tested on: KCHSC = Kochia scoparia (L.) Schrad. (kochia); experiment: Post-emergent foliar herbicidal activity, greenhouse: KCHSC
Description: as §1, §2, §3, §4, §5, §6, §7

[4] = tested on: GALAP = Galium aparine L. (catchweed bedstraw); experiment: Post-emergent foliar herbicidal activity, greenhouse: GALAP
Description: as §1, §2, §3, §4, §5, §6, §7

[5] = tested on: HORVS = Hordeum vulgare L. (spring barley); experiment: Post-emergent foliar herbicidal activity, greenhouse: HORVS (crop)
Description: as §1, §2, §3, §4, §5, §6, §7

[6] = tested on: VERPE = Veronica persica Poir. (Persian speedwell); experiment: Post-emergent foliar herbicidal activity, greenhouse: VERPE
Description: as §1, §2, §3, §4, §5, §6, §7

[7] = tested on: MATCH = Matricaria recutita L. (wild chamomile); experiment: Post-emergent foliar herbicidal activity, greenhouse: MATCH
Description: as §1, §2, §3, §4, §5, §6, §7

[8] = tested on: BRSNW = Brassica napus napus (winter) (winter rape); experiment: Post-emergent foliar herbicidal activity, greenhouse: BRSNW
Description: as §1, §2, §3, §4, §5, §6, §7

[9] = tested on: PAPRH = Papaver rhoeas L. (common poppy); experiment: Post-emergent foliar herbicidal activity, greenhouse: PAPRH
Description: as §1, §2, §3, §4, §5, §6, §7

[10] = tested on: STEME = Stellaria media (common chickweed); experiment: Post-emergent foliar herbicidal activity, greenhouse: STEME
Description: as §1, §2, §3, §4, §5, §6, §7

[11] = tested on: SINAR = Sinapis arvensis L. (wild mustard); experiment: Post-emergent foliar herbicidal activity, greenhouse: SINAR
Description: as §1, §2, §3, §4, §5, §6, §7

[12] = tested on: VIOTR = Viola tricolor L. (wild violet); experiment: Post-emergent foliar herbicidal activity, greenhouse: VIOTR
Description: as §1, §2, §3, §4, §5, §6, §7

[13] = tested on: LAMPU = Lamium purpureum L. (purple deadnettle); experiment: Post-emergent foliar herbicidal activity, greenhouse: LAMPU
Description: as §1, §2, §3, §4, §5, §6, §7

[14] = tested on: TRZAS = Triticum aestivum (spring) (spring wheat); experiment: Post-emergent foliar herbicidal activity, greenhouse: TRZAS (crop)
Description: as §1, §2, §3, §4, §5, §6, §7

[15] = tested on: SASKR = Salsola tragus L. (Russian thistle); experiment: Post-emergent foliar herbicidal activity, greenhouse: SASKR
Description: as §1, §2, §3, §4, §5, §6, §7

[16] = Compound I 2.5 + Chlormequat Chloride 0 g ai/ha
[17] = Compound I 5 + Chlormequat Chloride 0 g ai/ha
[18] = Compound I 10 + Chlormequat Chloride 0 g ai/ha
[19] = Compound I 0 + Chlormequat Chloride 279 g ai/ha
[20] = Compound I 0 + Chlormequat Chloride 558 g ai/ha
[21] = Compound I 0 + Chlormequat Chloride 1119 g ai/ha

COc1c(Cl)ccc(-c2nc(C(=O)OCc3ccccc3)c(Cl)c(N)c2F)c1F [Compound I, benzyl 4-amino-3-chloro-6-(4-chloro-2-fluoro-3-methoxyphenyl)-5-fluoropyridine-2-carboxylate]
CIRAR Obs [1, 16]: 48%
CIRAR Obs [1, 17]: 39%
CIRAR Obs [1, 18]: 60%
CHEAL Obs [2, 16]: 50%
CHEAL Obs [2, 17]: 58%
KCHSC Obs [3, 16]: 20%
KCHSC Obs [3, 17]: 41%
KCHSC Obs [3, 18]: 62%
GALAP Obs [4, 16]: 55%
GALAP Obs [4, 17]: 66%
GALAP Obs [4, 18]: 77%
HORVS Obs [5, 16]: 0%
HORVS Obs [5, 17]: 0%
VERPE Obs [6, 16]: 20%
VERPE Obs [6, 17]: 17%
VERPE Obs [6, 18]: 23%
MATCH Obs [7, 16]: 20%
MATCH Obs [7, 17]: 25%
MATCH Obs [7, 18]: 20%
BRSNW Obs [8, 16]: 18%
BRSNW Obs [8, 17]: 13%
BRSNW Obs [8, 18]: 13%
PAPRH Obs [9, 16]: 48%
PAPRH Obs [9, 17]: 28%
PAPRH Obs [9, 18]: 35%
STEME Obs [10, 16]: 25%
STEME Obs [10, 17]: 25%
STEME Obs [10, 18]: 27%
SINAR Obs [11, 16]: 70%
SINAR Obs [11, 17]: 73%
VIOTR Obs [12, 16]: 30%
VIOTR Obs [12, 17]: 20%
VIOTR Obs [12, 18]: 20%
LAMPU Obs [13, 16]: 80%
LAMPU Obs [13, 17]: 86%
LAMPU Obs [13, 18]: 94%
TRZAS Obs [14, 16]: 0%
TRZAS Obs [14, 17]: 0%
SASKR Obs [15, 16]: 15%
SASKR Obs [15, 17]: 50%
SASKR Obs [15, 18]: 67%

C[N+](C)(C)CCCl.[Cl-] [Chlormequat Chloride, (2-chloroethyl)trimethylammonium chloride]
CIRAR Obs [1, 19]: 5%
CIRAR Obs [1, 20]: 5%
CIRAR Obs [1, 21]: 10%
CHEAL Obs [2, 19]: 0%
CHEAL Obs [2, 20]: 3%
KCHSC Obs [3, 19]: 5%
KCHSC Obs [3, 20]: 5%
KCHSC Obs [3, 21]: 7%
GALAP Obs [4, 19]: 3%
GALAP Obs [4, 20]: 5%
GALAP Obs [4, 21]: 20%
HORVS Obs [5, 19]: 0%
HORVS Obs [5, 20]: 0%
VERPE Obs [6, 19]: 10%
VERPE Obs [6, 20]: 10%
VERPE Obs [6, 21]: 13%
MATCH Obs [7, 19]: 0%
MATCH Obs [7, 20]: 0%
MATCH Obs [7, 21]: 27%
BRSNW Obs [8, 19]: 0%
BRSNW Obs [8, 20]: 3%
BRSNW Obs [8, 21]: 5%
PAPRH Obs [9, 19]: 5%
PAPRH Obs [9, 20]: 5%
PAPRH Obs [9, 21]: 7%
STEME Obs [10, 19]: 8%
STEME Obs [10, 20]: 8%
STEME Obs [10, 21]: 7%
SINAR Obs [11, 19]: 8%
SINAR Obs [11, 20]: 15%
VIOTR Obs [12, 19]: 0%
VIOTR Obs [12, 20]: 0%
VIOTR Obs [12, 21]: 3%
LAMPU Obs [13, 19]: 15%
LAMPU Obs [13, 20]: 15%
LAMPU Obs [13, 21]: 30%
TRZAS Obs [14, 19]: 0%
TRZAS Obs [14, 20]: 8%
SASKR Obs [15, 19]: 0%
SASKR Obs [15, 20]: 0%
SASKR Obs [15, 21]: 7%
